Reference: patent publication EP4775586A1, “DEUTERATED TETRACYCLIC DERIVATIVE AND USE THEREOF” (priority 2023, dated 2025)

Assays:
CYP2A6 = format: in vitro ADME, mouse
Procedure: (§1) This example was to detect the CYP450 metabolic enzyme phenotype of the deuterated compound YF027 and its non-deuterated control compound A (using a CYP450 enzyme metabolic phenotype research kit (recombinant enzymatic method/7 enzymes)-mouse liver microsome test).
(§2) • a. The test compound was prepared into a 40 mM stock solution for later use. 2.5 µL of the stock solution was taken and diluted with DMSO to a test compound concentration of 200 µM, and the compound at this concentration was used in subsequent tests. • b. The working solution concentration of the mixed positive substrates, phenacetin and testosterone, was 200 µM.
(§3) 1) The components of the kit were thawed in an ice bath. The mixture was well mixed by vortexing and then placed on ice for later use. 2) In addition to the microsomes, the other components of the incubation systems were mixed according to the ratios and well mixed by pipetting, and the ratios of the incubation systems are shown below; Table 6. Incubation system of positive control group
(§4) The inhibitors were quinidine, naphthoflavone, pilocarpine, sodium diethyldithiocarbamate, ticlopidine, ketoconazole, and sulfaphenazole, which corresponded to the inhibition of CYP450 enzymes CYP2D6, CYP1A2, CYP2A6, CYP2E1, CYP2C19, CYP3A4, and CYP2C9, respectively. Table 9. Incubation system of negative control group
(§5) 3) Except for the negative control group (Table 9), 3.125 µL of liver microsomes was added to each of the above incubation systems to prepare 125 µL of reaction solution. The reaction solutions were well mixed by vortexing, and then placed in a water bath at 37 °C to initiate the reaction. A timer was set. 4) At time points of 0 min and 90 min, 50 µL of reaction solution was taken, and a pre-cooled acetonitrile solution was added to the reaction solution. The mixture was quickly well mixed by vortexing to stop the reaction. 5) Mass spectrometry detection pretreatment of reaction solution
(§6) The reaction solution was cryopreserved in a refrigerator at -80 °C overnight and then centrifuged for mass spectrometry detection.
(§7) The detection values after 90 min of incubation were processed as ratios relative to the 0-min detection values to determine the metabolic rate of the compounds in different experimental groups after 90 min. The metabolic inhibition rate was then calculated using the formula: Inhibition rate (%) = (1 - metabolic rate of sample with inhibitor/metabolic rate of sample without inhibitor) × 100%, as shown in Table 10 below. […] The metabolic inhibition rate reflects the effect on the metabolic elimination of the drug after adding different selective inhibitors. Therefore, when the metabolic inhibition rate of a specific enzyme is ≥ 25%, the contribution of the specific enzyme to the clearance of the drug under study can be inferred to be ≥ 25% based on the results of the in vitro metabolism study.

CYP2C9 = format: in vitro ADME, mouse
Procedure: as §1, §2, §3, §4, §5, §6, §7

CYP2D6 = format: in vitro ADME, mouse
Procedure: as §1, §2, §3, §4, §5, §6, §7

CYP3A4 = format: in vitro ADME, mouse
Procedure: as §1, §2, §3, §4, §5, §6, §7

CYP2C19 = format: in vitro ADME, mouse
Procedure: as §1, §2, §3, §4, §5, §6, §7

CYP2E1 = target: T1, CYP2E1 (Mus musculus, UniProt Q05421); format: in vitro ADME
T1 construct: from tissue; host or cells: mouse liver microsomes (component of a kit)
T1 sequence (Q05421 whole entry): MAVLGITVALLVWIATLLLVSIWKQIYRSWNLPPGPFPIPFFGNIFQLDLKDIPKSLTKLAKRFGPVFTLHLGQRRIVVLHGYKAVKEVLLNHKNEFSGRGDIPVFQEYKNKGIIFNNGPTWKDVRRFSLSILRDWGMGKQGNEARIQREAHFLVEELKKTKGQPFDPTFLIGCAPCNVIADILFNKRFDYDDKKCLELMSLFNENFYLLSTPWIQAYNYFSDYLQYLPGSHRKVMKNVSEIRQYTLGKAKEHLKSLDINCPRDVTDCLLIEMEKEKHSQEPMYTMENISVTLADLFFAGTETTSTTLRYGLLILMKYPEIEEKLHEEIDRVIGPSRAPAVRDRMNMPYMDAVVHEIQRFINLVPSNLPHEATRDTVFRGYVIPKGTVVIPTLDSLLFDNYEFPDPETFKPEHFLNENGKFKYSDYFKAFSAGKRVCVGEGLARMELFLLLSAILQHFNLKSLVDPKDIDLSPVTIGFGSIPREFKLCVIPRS
Procedure: as §1, §2, §3, §4, §5, §6
as §7, with “Therefore, when the metabolic inhibition rate of a specific enzyme is ≥ 25%, the contribution of the specific enzyme to the clearance of the drug under study can be inferred to be ≥ 25% based on the results of the in vitro metabolism study.” left out

CYP1A2 = target: T2, CYP1A2 (Mus musculus, UniProt P00186); format: in vitro ADME
T2 construct: from tissue; host or cells: mouse liver microsomes (component of a kit)
T2 sequence (P00186 1-513): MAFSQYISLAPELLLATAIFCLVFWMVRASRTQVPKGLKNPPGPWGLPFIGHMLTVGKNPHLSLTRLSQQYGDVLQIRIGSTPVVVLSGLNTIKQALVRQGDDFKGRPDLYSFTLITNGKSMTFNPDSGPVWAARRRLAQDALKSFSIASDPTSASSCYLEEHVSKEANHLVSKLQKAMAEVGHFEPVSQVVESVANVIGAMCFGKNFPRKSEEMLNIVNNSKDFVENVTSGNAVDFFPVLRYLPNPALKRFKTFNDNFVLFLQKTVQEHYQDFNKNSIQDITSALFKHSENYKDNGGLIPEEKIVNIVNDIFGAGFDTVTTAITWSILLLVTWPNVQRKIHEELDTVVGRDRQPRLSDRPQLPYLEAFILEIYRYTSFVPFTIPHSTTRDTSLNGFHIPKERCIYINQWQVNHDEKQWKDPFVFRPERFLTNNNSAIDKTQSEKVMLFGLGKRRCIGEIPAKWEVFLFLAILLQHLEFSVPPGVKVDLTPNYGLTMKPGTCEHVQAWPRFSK
Procedure: as §1, §2, §3, §4, §5, §6
as §7, with “Therefore, when the metabolic inhibition rate of a specific enzyme is ≥ 25%, the contribution of the specific enzyme to the clearance of the drug under study can be inferred to be ≥ 25% based on the results of the in vitro metabolism study.” left out

[1] = Pharmacokinetics and lung tissue distribution in mice, LC-MS/MS; format: in vivo, Balb/C mice; details: mouse, in vivo, po, 100 mg/kg
Procedure: In this example, the pharmacokinetic parameters and lung tissue distribution of the deuterated compounds YF027, YF032, YF036, and YF044 and their respective non-deuterated control compounds (A, B, C, and D) were determined.
Balb/C mice, male (1 group at each time point, 5 mice per group, 55 mice per compound in total), 7-8 weeks old, weighing about 20 g, animal source: Beijing Vital River Laboratory Animal Technology Co., Ltd.
The test compound was completely dissolved in an 8% Tween-80 aqueous solution. A 10 mg/mL drug liquid was prepared for intraperitoneal injection and intragastric administration.
Single intragastric administration was performed at a dose of 100 mg/kg. The pharmacokinetic differences between the deuterated compounds YF027, YF032, YF036, and YF044 and their respective non-deuterated controls A, B, C, and D were compared.
The mice were fasted overnight before administration. In the experiment, orbital venous blood and lung tissue were collected from the mice at time points of no administration group (0 min) and 10 min, 20 min, 30 min, 1 h, 2 h, 3 h, 4 h, 6 h, 8 h, and 24 h after intragastric administration, and about 300 µL of blood was collected from the eyeballs each time.
The collected blood sample was placed in an anticoagulation tube, and quickly inverted and mixed well. The tube was temporarily placed on ice after being labeled. The blood samples temporarily stored on ice were subjected to low-temperature centrifugation within 1 h at 4 °C at 3000 rpm for 10 min. The supernatant obtained after centrifugation was plasma. The plasma was transferred to a new centrifuge tube and stored in a refrigerator at -80 °C for subsequent detection.
The lung tissues of the mice were collected, washed with pre-cooled normal saline to remove the residual blood and tissue fluid, dried with absorbent paper, weighed with a balance, and placed into a centrifuge tube. The tubes were marked and stored in a refrigerator at -80 °C.
The concentrations of the compounds of the present disclosure and control compounds in plasma and lung tissue were determined using LC-MS/MS. Table 2. Pharmacokinetic parameters of compound YF027 of the present disclosure and control compound A

[2] = system: Mycobacterium tuberculosis H37Rv; assay: Minimum inhibitory concentration (MIC90) against Mycobacterium tuberculosis H37Rv, Middlebrook 7H9, 96-well plate, 15 days; format: cell-based; details: Mycobacterium tuberculosis H37Rv, 15 days of incubation, 90% inhibition of growth, visual reading

`Cl.[2H]C1([2H])CCCC([2H])([2H])N1C([2H])([2H])c1c(O)cc(C(C)(C)C)c2oc3c4ccc(O)cc4oc(=O)c3c12` [YF027, 10-(tert-Butyl)-3,8-dihydroxy-7-((piperidin-1-yl-2,2,6,6-d4)methyl-d2)-6H-benzofuran[3,2-c]chromen-6-one hydrochloride] gave an Inhibition rate (CYP2A6) of 14.0%, an Inhibition rate (CYP2C9) of 3.7% and an Inhibition rate (CYP2D6) of -1.3%. It also gave an Inhibition rate (CYP3A4) of 16.5%, an Inhibition rate (CYP2C19) of -5.7% and an Inhibition rate (CYP2E1) of -15.1%. The Inhibition rate (CYP1A2) was 0.4%, the “AUC0-∞” value [1] was 380.76 ng·h/mL and the CL [1] was 262.63 L/h/kg. For the same molecule, the Cmax [1] was 100.26 ng/mL, the “Lung tissue distribution Cmax” value [1] was 1406.73 ng/g and the Tmax [1] was 0.5 h. It also gave a t1/2 [1] of 1.83 h, an AUC0-t ([1]; 24 h) of 367.05 ng·h/mL and an MIC90 [2] of at most 3.9 ng/mL.
